One assay deals with NCI/ADR-RES. The assay can be described thus: Growth inhibition of human NCI/ADR-RES cells. It is filed as functional.
Assay [1] is described as follows: Growth inhibition of human NCI60 cells. It counts as functional.

Turning to `C=C1C[C@@H](O)[C@@H](Br)C(C)(C)[C@@]12C=C[C@@](O)(C(Br)Br)CC2` [MAILIOHYDRIN], the GI50 in the assay with NCI/ADR-RES worked out at 0.01 µM; in assay [1], 10 µM.

Usually GI50 stands for the concentration giving 50% growth inhibition.

These data come from ChEMBL document CHEMBL1150865, “Ma'iliohydrin, a cytotoxic chamigrene dibromohydrin from a Philippine Laurencia species” (2001).
